Test results from the NIST ThermoML archive (doi:10.1016/j.tca.2016.06.022).

Test: xn = mol fraction of the nth substance listed
Settings: 101 kPa, Liquid, Vibrating tube method

NCCN [ethane-1,2-diamine] + O
Settings | mass density [kg/m3]
274.15 K, x1 = 0.002 | 999.81
274.15 K, x1 = 0.0033 | 999.71
274.15 K, x1 = 0.0047 | 999.62
274.15 K, x1 = 0.0072 | 999.47
274.15 K, x1 = 0.009 | 999.38
274.15 K, x1 = 0.0123 | 999.18
274.15 K, x1 = 0.0222 | 998.88
274.15 K, x1 = 0.0436 | 999.22
274.15 K, x1 = 0.0609 | 1000.11
274.15 K, x1 = 0.0827 | 1002.02
275.15 K, x1 = 0.002 | 999.85
275.15 K, x1 = 0.0033 | 999.74
275.15 K, x1 = 0.0047 | 999.65
275.15 K, x1 = 0.0072 | 999.48
275.15 K, x1 = 0.009 | 999.37
275.15 K, x1 = 0.0123 | 999.18
275.15 K, x1 = 0.0222 | 998.82
275.15 K, x1 = 0.0436 | 999.08
275.15 K, x1 = 0.0609 | 999.93
275.15 K, x1 = 0.0827 | 1001.75
276.15 K, x1 = 0.002 | 999.87
276.15 K, x1 = 0.0033 | 999.75
276.15 K, x1 = 0.0047 | 999.66
276.15 K, x1 = 0.0072 | 999.48
276.15 K, x1 = 0.009 | 999.37
276.15 K, x1 = 0.0123 | 999.16
276.15 K, x1 = 0.0222 | 998.79
276.15 K, x1 = 0.0436 | 998.93
276.15 K, x1 = 0.0609 | 999.69
276.15 K, x1 = 0.0827 | 1001.43
277.15 K, x1 = 0.002 | 999.87
277.15 K, x1 = 0.0033 | 999.75
277.15 K, x1 = 0.0047 | 999.65
277.15 K, x1 = 0.0072 | 999.47
277.15 K, x1 = 0.009 | 999.35
277.15 K, x1 = 0.0123 | 999.12
277.15 K, x1 = 0.0222 | 998.71
277.15 K, x1 = 0.0436 | 998.76
277.15 K, x1 = 0.0609 | 999.54
277.15 K, x1 = 0.0827 | 1001.13
278.15 K, x1 = 0.002 | 999.85
278.15 K, x1 = 0.0033 | 999.73
278.15 K, x1 = 0.0047 | 999.62
278.15 K, x1 = 0.0072 | 999.43
278.15 K, x1 = 0.009 | 999.3
278.15 K, x1 = 0.0123 | 999.07
278.15 K, x1 = 0.0222 | 998.62
278.15 K, x1 = 0.0436 | 998.59
278.15 K, x1 = 0.0609 | 999.31
278.15 K, x1 = 0.0827 | 1000.79
278.15 K, x1 = 0.106 | 1002.72
278.15 K, x1 = 0.1481 | 1006.44
278.15 K, x1 = 0.2063 | 1009.32
278.15 K, x1 = 0.2513 | 1008.93
278.15 K, x1 = 0.3148 | 1002.73
278.15 K, x1 = 0.3258 | 1002.11
278.15 K, x1 = 0.3316 | 1001.85
278.15 K, x1 = 0.341 | 1001.4
278.15 K, x1 = 0.4038 | 992.34
278.15 K, x1 = 0.4489 | 985.23
278.15 K, x1 = 0.4928 | 977.8
278.15 K, x1 = 0.5468 | 968.88
278.15 K, x1 = 0.5907 | 961.76
278.15 K, x1 = 0.6361 | 954.59
278.15 K, x1 = 0.6843 | 947.87
278.15 K, x1 = 0.7386 | 940.37
278.15 K, x1 = 0.7954 | 933.17
278.15 K, x1 = 0.81 | 931.24
278.15 K, x1 = 0.8505 | 926.49
278.15 K, x1 = 0.898 | 921.18
278.15 K, x1 = 0.9282 | 917.97
278.15 K, x1 = 0.9584 | 914.9
278.15 K, x1 = 0.9678 | 913.98
279.15 K, x1 = 0.002 | 999.82
279.15 K, x1 = 0.0033 | 999.7
279.15 K, x1 = 0.0047 | 999.59
279.15 K, x1 = 0.0072 | 999.38
279.15 K, x1 = 0.009 | 999.26
279.15 K, x1 = 0.0123 | 999.01
279.15 K, x1 = 0.0222 | 998.54
279.15 K, x1 = 0.0436 | 998.41
279.15 K, x1 = 0.0609 | 999.05
279.15 K, x1 = 0.0827 | 1000.47
280.15 K, x1 = 0.002 | 999.78
280.15 K, x1 = 0.0033 | 999.65
280.15 K, x1 = 0.0047 | 999.54
280.15 K, x1 = 0.0072 | 999.33
280.15 K, x1 = 0.009 | 999.2
280.15 K, x1 = 0.0123 | 998.93
280.15 K, x1 = 0.0222 | 998.41
280.15 K, x1 = 0.0436 | 998.21
280.15 K, x1 = 0.0609 | 998.8
280.15 K, x1 = 0.0827 | 1000.14
281.15 K, x1 = 0.002 | 999.72
281.15 K, x1 = 0.0033 | 999.59
281.15 K, x1 = 0.0047 | 999.47
281.15 K, x1 = 0.0072 | 999.25
281.15 K, x1 = 0.009 | 999.12
281.15 K, x1 = 0.0123 | 998.84
281.15 K, x1 = 0.0222 | 998.29
281.15 K, x1 = 0.0436 | 998.03
281.15 K, x1 = 0.0609 | 998.53
281.15 K, x1 = 0.0827 | 999.78
282.15 K, x1 = 0.002 | 999.65
282.15 K, x1 = 0.0033 | 999.52
282.15 K, x1 = 0.0047 | 999.39
282.15 K, x1 = 0.0072 | 999.17
282.15 K, x1 = 0.009 | 999.04
282.15 K, x1 = 0.0123 | 998.74
282.15 K, x1 = 0.0222 | 998.17
282.15 K, x1 = 0.0436 | 997.81
282.15 K, x1 = 0.0609 | 998.25
282.15 K, x1 = 0.0827 | 999.43
283.15 K, x1 = 0.002 | 999.56
283.15 K, x1 = 0.0033 | 999.43
283.15 K, x1 = 0.0047 | 999.3
283.15 K, x1 = 0.0072 | 999.07
283.15 K, x1 = 0.009 | 998.92
283.15 K, x1 = 0.0123 | 998.62
283.15 K, x1 = 0.0222 | 998.01
283.15 K, x1 = 0.0436 | 997.6
283.15 K, x1 = 0.0609 | 997.98
283.15 K, x1 = 0.0827 | 999.09
288.15 K, x1 = 0.002 | 998.94
288.15 K, x1 = 0.0033 | 998.79
288.15 K, x1 = 0.0047 | 998.64
288.15 K, x1 = 0.0072 | 998.38
288.15 K, x1 = 0.009 | 998.21
288.15 K, x1 = 0.0123 | 997.87
288.15 K, x1 = 0.0222 | 997.12
288.15 K, x1 = 0.0436 | 996.36
288.15 K, x1 = 0.0609 | 996.47
288.15 K, x1 = 0.0827 | 997.2
288.15 K, x1 = 0.106 | 998.37
288.15 K, x1 = 0.1481 | 1000.83
288.15 K, x1 = 0.2063 | 1002.48
288.15 K, x1 = 0.2513 | 1001.08
288.15 K, x1 = 0.3148 | 995
288.15 K, x1 = 0.3316 | 993.72
288.15 K, x1 = 0.341 | 992.78
288.15 K, x1 = 0.4038 | 983.69
288.15 K, x1 = 0.4489 | 976.15
288.15 K, x1 = 0.4928 | 968.71
288.15 K, x1 = 0.5468 | 959.92
288.15 K, x1 = 0.5907 | 952.42
